Holding throughout (format): cell-based
Test [1] deals with T1, RAR gamma (Homo sapiens, UniProt P13631).
T1 sequence (P13631 185-419 limits assumed): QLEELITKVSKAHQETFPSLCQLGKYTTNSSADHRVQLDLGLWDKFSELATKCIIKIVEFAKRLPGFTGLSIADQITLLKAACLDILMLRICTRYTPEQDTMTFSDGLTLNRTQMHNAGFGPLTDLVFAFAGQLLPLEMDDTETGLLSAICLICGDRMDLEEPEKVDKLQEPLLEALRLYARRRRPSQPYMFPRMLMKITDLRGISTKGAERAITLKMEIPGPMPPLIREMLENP
In words: Transactivation test, HeLa reporter cells (luciferase), RAR gamma. The note with it: HeLa stable transfectants; for Kd: Schild regression vs reference antagonist, read-out: Kdapp; for AC50: concentration that gives 50% of the activity. Here is the method: (§1) The activation of receptors with an agonist (activator) in HeLa cells leads to the expression of a reporter gene, luciferase, which, in the presence of a substrate, generates light. The activation of the receptors may thus be measured by quantifying the luminescence produced after incubating the cells in the presence of a reference antagonist. The activating products displace the antagonist from its site, thus allowing activation of the receptor. The activity is measured by quantifying the increase in light produced. This measurement makes it possible to determine the activating activity of the compounds according to the invention.
(§2) Determination of the Kdapp:
(§3) In this study, a constant is determined which is the affinity of the molecule for the receptor. Since this value can fluctuate depending on the basal activity and the expression of the receptor, it is referred to as the Kdapparent (KdApp).
(§4) To determine this constant, the cells are brought into contact with a concentration of the test product and a concentration of the reference antagonist, 4-(5,5-dimethyl-8-p-tolyl-5,6-dihydronaphth-2-ylethynyl)benzoic acid. Measurements are also taken for the total agonist (4-[2-(5,5,8,8-tetramethyl-5,6,7,8-tetrahydronaphth-2-yl)propenyl]benzoic acid) and inverse agonist, 4-{(E)-3-[4-(4-tert-butylphenyl)-5,5,8,8-tetramethyl-5,6,7,8-tetrahydro-2-naphthyl]-3-oxopropenyl}benzoic acid, controls.
(§5) These crossed curves make it possible to determine the AC50 values (concentration at which 50% activation is observed) for the reference ligand at various concentrations of test product. These AC50 values are used to calculate the Schild regression by plotting a straight line corresponding to the Schild equation (“quantitation in receptor pharmacology” Terry P. Kenakin, Receptors and Channels, 2001, 7, 371-385).
(§6) In the case of an agonist, an AC50 value (concentration that gives 50% of the activity) is calculated by plotting the curve of the product at the concentration of the reference ligand that gives 80% activation.
(§7) The HeLa cell lines used are stable transfectants containing the plasmids ERE-βGlob-Luc-SV-Neo (reporter gene) and RAR (α, β, γ) ER-DBD-puro. These cells are inoculated into 96-well plates at a rate of 10,000 cells per well in 100 μl of DMEM medium without phenol red, and supplemented with 10% defatted calf serum. The plates are then incubated at 37° C. and 7% CO2 for 4 hours.
(§8) The various dilutions of the test products, of the reference ligand (4-(5,5-dimethyl-8-p-tolyl-5,6-dihydronaphth-2-yl)ethynyl)benzoic acid, of the 100% control (100 nM 4-[2-(5,5,8,8-tetramethyl-5,6,7,8-tetrahydro-2-naphthyl)propenyl]benzoic acid) and of the 0% control (500 nM 4-{(E)-3-[4-(4-tert-butylphenyl)-5,5,8,8-tetramethyl-5,6,7,8-tetrahydro-2-naphthyl]-3-oxopropenyl}benzoic acid) are added at a rate of 5 μl per well. The plates are then incubated for 18 hours at 37° C. and 7% CO2.
(§9) The culture medium is removed by turning over and 100 μl of a 1:1 PBS/luciferine mixture is added to each well. After 5 minutes, the plates are read using the luminescence detector.

Test [2] has as its target T2, RAR alpha (Homo sapiens, UniProt P10276).
T2 sequence (P10276 183-417 limits assumed): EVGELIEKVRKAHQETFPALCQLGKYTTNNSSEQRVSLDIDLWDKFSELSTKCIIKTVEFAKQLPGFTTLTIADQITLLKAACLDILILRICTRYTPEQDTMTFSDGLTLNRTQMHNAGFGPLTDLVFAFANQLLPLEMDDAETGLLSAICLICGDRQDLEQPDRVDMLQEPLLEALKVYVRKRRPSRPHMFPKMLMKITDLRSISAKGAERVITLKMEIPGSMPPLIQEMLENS
Nature of the test: Transactivation test, HeLa reporter cells (luciferase), RAR alpha. The note with it: HeLa stable transfectants; for Kd: Schild regression vs reference antagonist, read-out: Kdapp; for AC50: concentration that gives 50% of the activity. On the procedure: as §1, §2, §3, §4, §5, §6, §7, §8, §9

Test [3] concerns the target T3, RAR beta (Homo sapiens, UniProt P10826).
T3 sequence (P10826 183-417 limits assumed): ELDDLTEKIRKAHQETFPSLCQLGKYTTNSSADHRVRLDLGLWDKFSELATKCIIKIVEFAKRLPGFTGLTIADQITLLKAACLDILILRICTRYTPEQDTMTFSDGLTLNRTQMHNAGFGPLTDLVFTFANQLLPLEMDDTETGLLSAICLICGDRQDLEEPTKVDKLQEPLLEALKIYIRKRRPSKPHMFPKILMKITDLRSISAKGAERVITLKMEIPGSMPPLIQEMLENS
In words: Transactivation test, HeLa reporter cells (luciferase), RAR beta. Conditions: HeLa stable transfectants; for AC50: concentration that gives 50% of the activity; for Kd: Schild regression vs reference antagonist, read-out: Kdapp. Here is the method: as §1, §2, §3, §4, §5, §6, §7, §8, §9

We go through 5 compounds from patent US8765805B2, “Ligand activators of the RAR receptors and pharmaceutical/cosmetic applications thereof” (Galderma Research & Development, priority 2003, dated 2014).

Consider `CCOCCOc1cc(C(O)C#Cc2ccc(C(=O)O)cc2)cc2c1C(C)(C)CCC2(C)C` (stereo not drawn) [Ex 2, 4-{3-Hydroxy-3-[4-(2-ethoxyethoxy)-5,5,8,8-tetramethyl-5,6,7,8-tetrahydronaphth-2-yl]-prop-1-ynyl}benzoic acid], for which the Kd was found to be 0.03 µM in test [1] and 1 µM in test [2]. In addition, the AC50 (commonly the concentration giving half of the maximal activity seen) in test [1] came out at 0.05 µM; in test [2], 0.9 µM; in test [3], 0.5 µM.
The corresponding values for `CCOCCOc1cc([C@@H](O)C#Cc2ccc(C(=O)O)cc2)cc2c1C(C)(C)CCC2(C)C` [Ex 5, 4-{3-Hydroxy-3-[4-(2-ethoxyethoxy)-5,5,8,8-tetramethyl-5,6,7,8-tetrahydronaphth-2-yl]prop-1-ynyl}benzoic (R)-acid] are 0.001 µM, 0.12 µM, 0.0018 µM, 0.8 µM and 0.2 µM.
For the compound `CCOCCOc1cc(C(O)C#Cc2ccc(C(=O)O)c(O)c2)cc2c1C(C)(C)CCC2(C)C` (stereo not drawn) [Ex 3, 4-{3-Hydroxy-3-[4-(2-ethoxyethoxy)-5,5,8,8-tetramethyl-5,6,7,8-tetrahydronaphth-2-yl]prop-1-ynyl}-2-hydroxybenzoic acid], the Kd in test [1] came to 0.001 µM; in test [2] it was 0.03 µM; in test [3], 0.12 µM. The AC50 is 0.001 µM in test [1], 0.15 µM in test [2] and 0.1 µM in test [3].
As for `CCOCCOc1cc([C@H](O)C#Cc2ccc(C(=O)O)cc2)cc2c1C(C)(C)CCC2(C)C` [Ex 4, 4-{3-Hydroxy-3-[4-(2-ethoxyethoxy)-5,5,8,8-tetramethyl-5,6,7,8-tetrahydronaphth-2-yl]-prop-1-ynyl}benzoic (S)-acid], the figures for the Kd in test [1] and in test [2] were 0.001 µM and 0.12 µM, respectively. Further, the AC50 is 0.0012 µM in test [1], 0.8 µM in test [2] and 0.2 µM in test [3].
As for `COCCOc1cc(C(O)C#Cc2ccc(C(=O)O)cc2)cc2c1C(C)(C)CCC2(C)C` (stereo not drawn) [Ex 1, 4-{3-Hydroxy-3-[4-(2-methoxyethoxy)-5,5,8,8-tetramethyl-5,6,7,8-tetrahydronaphth-2-yl]prop-1-ynyl}benzoic acid], the Kd in test [1] was 0.002 µM; in test [2], 0.06 µM; in test [3], 0.06 µM. Moreover, the figures for the AC50 in test [1], in test [2] and in test [3] were 0.002 µM, 0.4 µM and 0.045 µM, respectively.
